Activity calls are given as the source filed them. No cut-off for these calls is given here.
Experiments:
[1] = test system: Klebsiella oxytoca; assay: Potentiation of meropenem-induced antibacterial activity against VIM4 carbapenemase producing multidrug-resistant Klebsiella oxytoca 126 clinical isolate at 1:8 meropenem:compound ratio by checkerboard method; assay type: functional
[2] = test system: Pseudomonas aeruginosa; assay: Potentiation of meropenem-induced antibacterial activity against VIM2 carbapenemase producing multidrug-resistant Pseudomonas aeruginosa GR57 clinical isolate at 1:8 meropenem:compound ratio by checkerboard method; assay type: functional
[3] = Inhibition of beta-lactamase VIM-2 (unknown origin)
[4] = test system: Escherichia coli; assay: Antibacterial activity against VIM4 carbapenemase producing multidrug-resistant Escherichia coli 98 clinical isolate infected in Galleria mellonella larvae assessed as survival rate at 4.8 mg/kg measured at 96 hrs; assay type: functional, organism-based
[5] = test system: Pseudomonas aeruginosa; assay: Potentiation of meropenem-induced antibacterial activity against VIM2 carbapenemase producing multidrug-resistant Pseudomonas aeruginosa GR64 clinical isolate assessed as MIC of meropenem at 1:8 meropenem:compound ratio by broth microtiter dilution method; assay type: functional
[6] = test system: Escherichia coli; assay: Potentiation of meropenem-induced antibacterial activity against VIM4 carbapenemase producing multidrug-resistant Escherichia coli 98 clinical isolate infected in Galleria mellonella larvae assessed as survival rate at 4.8 mg/kg measured at 96 hrs; assay type: functional; conditions: Escherichia coli, 98, 96 h
[7] = test system: Pseudomonas aeruginosa; assay: Antibacterial activity against VIM2 carbapenemase producing multidrug-resistant Pseudomonas aeruginosa 16 clinical isolate up to 512 mg/L by broth microtiter dilution method; assay type: functional, organism-based
[8] = test system: Pseudomonas aeruginosa; assay: Potentiation of meropenem-induced antibacterial activity against VIM2 carbapenemase producing multidrug-resistant Pseudomonas aeruginosa 8 clinical isolate assessed as MIC of meropenem at 1:8 meropenem:compound ratio by broth microtiter dilution method; assay type: functional
[9] = test system: Pseudomonas aeruginosa; assay: Antibacterial activity against VIM2 carbapenemase producing multidrug-resistant Pseudomonas aeruginosa 14 clinical isolate up to 512 mg/L by broth microtiter dilution method; assay type: functional, organism-based
[10] = test system: Klebsiella pneumoniae; assay: Potentiation of meropenem-induced antibacterial activity against VIM4 carbapenemase producing multidrug-resistant Klebsiella pneumoniae 120 clinical isolate infected in Galleria mellonella larvae assessed as survival rate at 4.8 mg/kg measured at 96 hrs; assay type: functional; conditions: Klebsiella pneumoniae, 120, 96 h
[11] = test system: Enterobacter cloacae; assay: Potentiation of meropenem-induced antibacterial activity against VIM4 carbapenemase producing multidrug-resistant Enterobacter cloacae 102 clinical isolate assessed as MIC of meropenem at 1:8 meropenem:compound ratio by broth microtiter dilution method; assay type: functional
[12] = test system: Pseudomonas aeruginosa; assay: Antibacterial activity against VIM2 carbapenemase producing multidrug-resistant Pseudomonas aeruginosa 30 clinical isolate up to 512 mg/L by broth microtiter dilution method; assay type: functional, organism-based
[13] = test system: Pseudomonas aeruginosa; assay: Potentiation of meropenem-induced antibacterial activity against VIM2 carbapenemase producing multidrug-resistant Pseudomonas aeruginosa 12 clinical isolate at 1:8 meropenem:compound ratio by checkerboard method; assay type: functional
[14] = test system: Klebsiella pneumoniae; assay: Antibacterial activity against VIM4 carbapenemase producing multidrug-resistant Klebsiella pneumoniae 101 clinical isolate up to 512 mg/L by broth microtiter dilution method; assay type: functional, organism-based
[15] = test system: Klebsiella pneumoniae; assay: Antibacterial activity against VIM4 carbapenemase producing multidrug-resistant Klebsiella pneumoniae 128 clinical isolate up to 512 mg/L by broth microtiter dilution method; assay type: functional, organism-based
[16] = test system: Pseudomonas aeruginosa; assay: Antibacterial activity against VIM2 carbapenemase producing multidrug-resistant Pseudomonas aeruginosa 6 clinical isolate up to 512 mg/L by broth microtiter dilution method; assay type: functional, organism-based
[17] = test system: Klebsiella oxytoca; assay: Antibacterial activity against VIM4 carbapenemase producing multidrug-resistant Klebsiella oxytoca 126 clinical isolate up to 512 mg/L by broth microtiter dilution method; assay type: functional, organism-based
[18] = test system: Pseudomonas aeruginosa; assay: Potentiation of meropenem-induced antibacterial activity against VIM2 carbapenemase producing multidrug-resistant Pseudomonas aeruginosa 27 clinical isolate assessed as MIC of meropenem at 1:8 meropenem:compound ratio by broth microtiter dilution method; assay type: functional
[19] = test system: Pseudomonas aeruginosa; assay: Potentiation of meropenem-induced antibacterial activity against VIM2 carbapenemase producing multidrug-resistant Pseudomonas aeruginosa GR64 clinical isolate at 1:8 meropenem:compound ratio by checkerboard method; assay type: functional
[20] = test system: Pseudomonas aeruginosa; assay: Antibacterial activity against VIM2 carbapenemase producing multidrug-resistant Pseudomonas aeruginosa 8 clinical isolate up to 512 mg/L by broth microtiter dilution method; assay type: functional, organism-based
[21] = test system: Pseudomonas aeruginosa; assay: Potentiation of meropenem-induced antibacterial activity against VIM2 carbapenemase producing multidrug-resistant Pseudomonas aeruginosa 8 clinical isolate at 1:8 meropenem:compound ratio by checkerboard method; assay type: functional
[22] = test system: Pseudomonas aeruginosa; assay: Antibacterial activity against VIM2 carbapenemase producing multidrug-resistant Pseudomonas aeruginosa 12 clinical isolate up to 512 mg/L by broth microtiter dilution method; assay type: functional, organism-based
[23] = test system: Pseudomonas aeruginosa; assay: Potentiation of meropenem-induced antibacterial activity against VIM2 carbapenemase producing multidrug-resistant Pseudomonas aeruginosa 30 clinical isolate at 1:8 meropenem:compound ratio by checkerboard method; assay type: functional
[24] = test system: Klebsiella pneumoniae; assay: Antibacterial activity against VIM4 carbapenemase producing multidrug-resistant Klebsiella pneumoniae 120 clinical isolate up to 512 mg/L by broth microtiter dilution method; assay type: functional, organism-based
[25] = test system: Providencia stuartii; assay: Potentiation of meropenem-induced antibacterial activity against VIM1 carbapenemase producing multidrug-resistant Providencia stuartii 67 clinical isolate assessed as MIC of meropenem at 1:8 meropenem:compound ratio by broth microtiter dilution method; assay type: functional
[26] = test system: Pseudomonas aeruginosa; assay: Antibacterial activity against VIM2 carbapenemase producing multidrug-resistant Pseudomonas aeruginosa GR57 clinical isolate up to 512 mg/L by broth microtiter dilution method; assay type: functional, organism-based
[27] = test system: Pseudomonas aeruginosa; assay: Potentiation of meropenem-induced antibacterial activity against VIM2 carbapenemase producing multidrug-resistant Pseudomonas aeruginosa 6 clinical isolate at 1:8 meropenem:compound ratio by checkerboard method; assay type: functional
[28] = test system: Pseudomonas aeruginosa; assay: Potentiation of meropenem-induced antibacterial activity against VIM2 carbapenemase producing multidrug-resistant Pseudomonas aeruginosa 15 clinical isolate at 1:8 meropenem:compound ratio by checkerboard method; assay type: functional
[29] = test system: Pseudomonas aeruginosa; assay: Potentiation of meropenem-induced antibacterial activity against VIM2 carbapenemase producing multidrug-resistant Pseudomonas aeruginosa 50 clinical isolate at 1:8 meropenem:compound ratio by checkerboard method; assay type: functional
[30] = test system: Pseudomonas aeruginosa; assay: Antibacterial activity against VIM2 carbapenemase producing multidrug-resistant Pseudomonas aeruginosa 11 clinical isolate up to 512 mg/L by broth microtiter dilution method; assay type: functional, organism-based
[31] = test system: Providencia stuartii; assay: Antibacterial activity against VIM1 carbapenemase producing multidrug-resistant Providencia stuartii 67 clinical isolate up to 512 mg/L by broth microtiter dilution method; assay type: functional, organism-based
[32] = test system: Pseudomonas aeruginosa; assay: Potentiation of meropenem-induced antibacterial activity against VIM2 carbapenemase producing multidrug-resistant Pseudomonas aeruginosa 9 clinical isolate at 1:8 meropenem:compound ratio by checkerboard method; assay type: functional
[33] = test system: Pseudomonas aeruginosa; assay: Potentiation of meropenem-induced antibacterial activity against VIM2 carbapenemase producing multidrug-resistant Pseudomonas aeruginosa 16 clinical isolate at 1:8 meropenem:compound ratio by checkerboard method; assay type: functional
[34] = test system: Klebsiella pneumoniae; assay: Potentiation of meropenem-induced antibacterial activity against VIM4 carbapenemase producing multidrug-resistant Klebsiella pneumoniae 120 clinical isolate infected in Galleria mellonella larvae assessed as relative risk of survival at 4.8 mg/kg measured at 96 hrs relative to control; assay type: functional
[35] = test system: Klebsiella pneumoniae; assay: Antibacterial activity against VIM1 carbapenemase producing multidrug-resistant Klebsiella pneumoniae GR54 clinical isolate up to 512 mg/L by broth microtiter dilution method; assay type: functional, organism-based
[36] = test system: Klebsiella pneumoniae; assay: Potentiation of meropenem-induced antibacterial activity against VIM4 carbapenemase producing multidrug-resistant Klebsiella pneumoniae 196 clinical isolate assessed as MIC of meropenem at 1:8 meropenem:compound ratio by broth microtiter dilution method; assay type: functional
[37] = test system: Pseudomonas aeruginosa; assay: Potentiation of meropenem-induced antibacterial activity against VIM2 carbapenemase producing multidrug-resistant Pseudomonas aeruginosa 11 clinical isolate assessed as MIC of meropenem at 1:8 meropenem:compound ratio by broth microtiter dilution method; assay type: functional

In the case of `O=C(O)/C(S)=C/c1c(Cl)ccc(Cl)c1Cl`, the “fractional inhibitory concentration index (FICI)” value [1] is reported as 0.19, the “fractional inhibitory concentration index (FICI)” value [2] is reported as 0.19 and the IC50 [3] is reported as 0.3 µM. For the same compound, the Activity [4] was “Active”, the MIC [5] was 4 µg/mL and the survival at 4.8 mg/kg [6] was 69%. For the same compound, the Activity [7] was “inactive”, the MIC [8] was 16 µg/mL and the Activity [9] was “inactive”. The survival at 4.8 mg/kg [10] was 98%, the MIC [11] was 4 µg/mL and the Activity [12] was “inactive”. The “fractional inhibitory concentration index (FICI)” value [13] was 0.75, the Activity [14] was “inactive” and the Activity [15] was “inactive”. The Activity [16] was “inactive”, the Activity [17] was “inactive” and the MIC [18] was 16 µg/mL. For the same compound, the “fractional inhibitory concentration index (FICI)” value [19] was 0.19, the Activity [20] was “inactive” and the “fractional inhibitory concentration index (FICI)” value [21] was 0.38. The Activity [22] was “inactive”, the “fractional inhibitory concentration index (FICI)” value [23] was 0.25 and the Activity [24] was “inactive”. The MIC [25] was 1 µg/mL, the Activity [26] was “inactive” and the “fractional inhibitory concentration index (FICI)” value [27] was 0.38. The “fractional inhibitory concentration index (FICI)” value [28] was 0.5, the “fractional inhibitory concentration index (FICI)” value [29] was 0.38 and the Activity [30] was “inactive”. The Activity [31] was “inactive”, the “fractional inhibitory concentration index (FICI)” value [32] was 0.38 and the “fractional inhibitory concentration index (FICI)” value [33] was 0.5. The “fold change (FC)” value [34] was 0.7, the Activity [35] was “inactive” and the MIC [36] was 1 µg/mL. The MIC [37] was 2 µg/mL.
